# Experimental data: the supplement of paper PMC10307832
# Assays:
# Assay in all cases: relative viability (nuclei count vs DMSO), 5 days (fraction); higher = more cells survive
# [1] = compound: C1CCC(CC1)N(CCNCCC2=C3C(=C(C=C2)O)NC(=O)CO3)C(=O)CCNCCC4=CC(=C(C=C4)Cl)Cl [AZ505] + Cc1cc(Nc2cc(N3CCN(C)CC3)nc(Sc3ccc(NC(=O)C4CC4)cc3)n2)n[nH]1 [Tozasertib] (partner 0.1 µM)
# How it was run: (§1)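 Lung cancer cell lines in 1536-well plates got either a single drug or a fixed anchor-drug dose together with five library-drug doses (not always all listed) in √10 steps, by pin tool, on the day after seeding. Nuclei were counted after 5 days, and relative viability is the treated-to-vehicle ratio of nuclei counts. Values are medians of duplicate plates.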
# [2] = compound: C1CCC(CC1)N(CCNCCC2=C3C(=C(C=C2)O)NC(=O)CO3)C(=O)CCNCCC4=CC(=C(C=C4)Cl)Cl [AZ505] + CS(=O)(=O)N1CCN(Cc2cc3nc(-c4cccc5[nH]ncc45)nc(N4CCOCC4)c3s2)CC1 [Pictilisib] (partner 1 µM)
# How it was run: as §1
# [3] = compound: C1CCC(CC1)N(CCNCCC2=C3C(=C(C=C2)O)NC(=O)CO3)C(=O)CCNCCC4=CC(=C(C=C4)Cl)Cl [AZ505] + C[C@]1(O)C[C@@H](c2nc(-c3ccc4ccc(-c5ccccc5)nc4c3)c3c(N)nccn32)C1 [Linsitinib] (partner 1 µM)
# How it was run: as §1
# [4] = compound: C1CCC(CC1)N(CCNCCC2=C3C(=C(C=C2)O)NC(=O)CO3)C(=O)CCNCCC4=CC(=C(C=C4)Cl)Cl [AZ505] + COc1cccc2cc(-c3nc([C@H]4CC[C@H](C(=O)O)CC4)n4ncnc(N)c34)[nH]c12 [OSI-027] (partner 0.5 µM)
# How it was run: as §1
Cell Line,relative viability ([1]; first compound 0.08 µM),relative viability ([1]; first compound 0.253 µM),relative viability ([1]; first compound 0.8 µM),relative viability ([1]; first compound 2.53 µM),relative viability ([1]; first compound 8 µM),relative viability ([2]; first compound 0.08 µM),relative viability ([2]; first compound 0.253 µM),relative viability ([2]; first compound 0.8 µM),relative viability ([2]; first compound 2.53 µM),relative viability ([2]; first compound 8 µM),relative viability ([3]; first compound 0.08 µM),relative viability ([3]; first compound 0.253 µM),relative viability ([3]; first compound 0.8 µM),relative viability ([3]; first compound 2.53 µM),relative viability ([3]; first compound 8 µM),relative viability ([4]; first compound 0.08 µM),relative viability ([4]; first compound 0.253 µM),relative viability ([4]; first compound 0.8 µM),relative viability ([4]; first compound 2.53 µM),relative viability ([4]; first compound 8 µM)
LOU-NH91,0.654,0.696,0.577,0.591,0.625,0.493,0.512,0.537,0.452,0.531,0.838,0.92,0.857,0.915,0.962,0.634,0.674,0.638,0.672,0.656
LU99A,–,0.306,0.279,0.286,0.332,0.318,0.327,0.302,0.354,0.315,0.524,0.647,0.507,0.573,0.565,–,0.346,0.271,0.32,0.329
LXF-289,0.2,0.172,0.183,0.21,0.229,0.706,–,0.773,0.731,0.818,0.884,–,0.973,0.943,0.96,0.701,0.748,0.763,0.668,0.959
NCI-H23,0.388,–,0.392,0.402,0.327,0.402,–,0.582,0.416,0.478,0.561,–,0.651,0.554,0.545,0.54,–,0.609,0.71,0.563
NCI-H322M,0.451,0.478,0.467,0.484,0.465,0.517,0.422,0.562,0.508,0.504,0.895,0.863,0.983,0.981,0.95,0.535,0.332,0.601,0.572,0.553
NCI-H358,0.094,0.0964,0.0966,0.108,0.104,0.3,0.332,0.355,0.313,0.371,0.733,0.689,0.689,0.752,0.669,0.715,0.769,0.652,0.556,0.767
NCI-H441,0.564,0.546,0.625,0.534,0.589,0.427,0.548,0.458,0.546,0.521,0.513,0.51,0.662,0.543,0.509,0.66,0.595,0.614,0.579,0.703
NCI-H460,0.481,0.0927,0.551,0.204,0.299,0.264,0.299,0.337,0.29,0.364,0.654,0.899,0.674,0.716,0.817,0.636,0.71,0.57,0.57,0.845
NCI-H520,0.441,0.389,0.44,0.469,0.463,0.264,0.273,0.284,0.272,0.259,0.911,1.1,0.85,1.04,0.955,0.26,0.285,0.288,0.306,0.322
NCI-H596,0.845,0.894,0.708,0.821,0.726,0.362,0.382,0.355,0.394,0.445,0.953,0.932,0.933,1,0.908,0.591,0.517,0.937,0.685,0.847
NCI-H647,0.46,0.425,0.277,0.372,0.363,0.448,–,0.359,0.422,0.485,1.08,1.36,1.04,1.29,1.22,0.615,0.698,0.488,0.619,0.693
NCI-H650,0.733,0.705,0.729,0.726,0.736,0.69,1.01,0.876,0.86,0.885,0.847,0.739,0.897,1.15,0.921,0.503,0.552,0.529,0.671,0.54
NCI-H661,0.356,0.377,0.351,0.32,0.367,–,0.357,0.392,0.563,0.45,0.583,0.567,0.544,0.491,0.646,0.681,0.8,0.666,0.695,0.715
NCI-H727,0.645,0.53,0.525,–,0.581,0.327,0.313,0.468,0.274,0.47,0.388,0.24,0.272,0.427,0.275,0.388,0.576,0.517,–,0.651
NCI-H838,0.253,0.286,0.257,0.268,0.265,0.342,0.404,0.493,0.344,0.411,0.965,1.03,1.02,0.997,0.928,0.402,0.438,0.402,0.34,0.398
NCI-H1355,0.57,0.534,0.586,0.534,0.527,0.409,0.338,0.428,0.321,0.445,0.787,0.783,0.81,0.684,0.826,0.395,0.319,0.384,0.362,0.429
